The molecules below were run against T1, human RORγ (Homo sapiens, UniProt P51449) (assay: Luciferase reporter gene assay of inhibitory effect against RORγ transcriptional activity (GAL4-hRORγ plasmid in CHO cells)). Conditions: read-out: LUC EC50 (μM) hRORg.
T1 construct: human, NM_005060.3 and from Ser253 to Lys518; expressed in transfected cells; host or cells: CHO cells (transient co-transfection with pG5-Luc reporter)
T1 sequence (P51449 253-518): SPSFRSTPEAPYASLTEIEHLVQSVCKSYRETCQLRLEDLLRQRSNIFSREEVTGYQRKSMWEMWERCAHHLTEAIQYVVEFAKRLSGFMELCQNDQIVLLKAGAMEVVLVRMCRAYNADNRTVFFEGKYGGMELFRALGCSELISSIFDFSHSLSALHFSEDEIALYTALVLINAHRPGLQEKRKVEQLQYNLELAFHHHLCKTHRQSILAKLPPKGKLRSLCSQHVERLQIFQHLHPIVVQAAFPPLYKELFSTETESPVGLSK
Assay type: cell-based

Row | Structure (SMILES) | EC50
1 | Cc1ccc(NC(=O)C[C@H](CCO)c2nnc(-c3cc(CC(C)C)on3)n2C2CC2)c(C)c1 [Example F-457] | < 3 µM
2 | Cc1ccc(NC(=O)CCc2nnc([C@H]3C[C@H](CC4CCCC4)C3)n2C2CC2)c(C)c1 [Example F-423] | < 3 µM
3 | CCn1c(CCC(=O)Nc2cccc(Cl)c2C)nnc1C1Cc2ccccc2C1 [Example F-3] | > 3 µM
4 | Cc1cccc(O)c1NC(=O)CCc1nnc(CCC(C)C)n1C1CC1 [Example F-104] | > 3 µM
5 | Cc1ccc(NC(=O)CC(CCO)c2nnc(CCCC(C)(C)C)n2C2CC2)c(C)c1 (racemic) [Example F-307] | < 3 µM
6 | CCn1c(CCC(=O)Nc2cccc3ccccc23)nnc1CCc1ccccc1 [Example F-12] | < 3 µM
7 | Cc1c(Cl)cccc1NC(=O)CCc1nnc(CC(=O)OC(C)(C)C)n1C1CC1 [Example F-178] | < 3 µM
8 | Cc1ccc(NC(=O)C[C@H](CCC(=O)O)c2noc(-c3nnc(CC(C)C)s3)c2C2CC2)c(Cl)c1 [Example E-14] | < 3 µM
9 | COc1cc(C)ccc1CNC(=O)[C@H]1CCC(=O)N(C)[C@@H]1c1nnc(CCCC(C)(C)C)n1C1CC1 [Example F-323] | < 3 µM
10 | CC(C)CCc1nnc(CCC(=O)NCc2ccccc2Cl)n1C1CC1 [Example F-121] | > 3 µM
11 | Cc1c(Cl)cccc1NC(=O)CCc1nnc(CC(=O)O)n1C1CC1 [Example F-264] | > 3 µM
12 | Cc1ccc(NC(=O)C[C@H](CCC(=O)O)c2noc(-c3cc(C4(CC(C)C)CC4)on3)c2C2CC2)c(Cl)c1 [Example E-23] | < 3 µM
13 | Cc1c(Cl)cccc1NC(=O)CCc1nnc(C2CN(CC(C)C)C2)n1C1CC1 [Example F-260] | > 3 µM
14 | Cc1ccc(NC(=O)CC(Cc2ncco2)c2nnc([C@H]3C[C@@H](CC(C)C)C3)n2C2CC2)c(C)c1 (mixture of isomers) [Example F-454] | < 3 µM
15 | CC(=O)N1C[C@H](C(=O)Nc2ccc(C)cc2C)[C@@H](c2nnc(C(O)CCC(C)(C)C)n2C2CC2)C1 (single isomer, unassigned) [Example F-349] | > 3 µM
16 | COCCC(CC(=O)Nc1ccc(C)cc1C)c1nnc(CCC2CCCCC2)n1C1CC1 (racemic) [Example F-396] | < 3 µM
17 | Cc1ccc(NC(=O)[C@H]2CCCN(C)[C@@H]2c2nnc(CCCC(C)(C)C)n2C2CC2)c(C)c1 [Example F-310] | < 3 µM
18 | Cc1ccc(NC(=O)C[C@H](CCC(=O)O)c2noc(-c3cc(CC(C)(C)C)on3)c2C2CC2)c(Cl)c1 [Example E-06] | < 3 µM
19 | CC(=O)N(C)[C@@H](CC(=O)Nc1ccc(C)cc1C)c1nnc(CCCC(C)(C)C)n1C1CC1 [Example F-354] | < 3 µM
20 | Cc1ccc(NC(=O)CC(CCCN)c2nnc(CCCC(C)C)n2C2CC2)c(C)c1 (racemic) [Example F-282] | > 3 µM
21 | CCn1c(CCC(=O)Nc2cc(C)cc(C)c2)nnc1CCC(C)(C)C [Example F-46] | > 3 µM

These molecules were tested against T2, mouse RORγ (Mus musculus, UniProt P51450) (assay: Luciferase reporter gene assay of inhibitory effect against RORγ transcriptional activity (GAL4-mRORγ plasmid in CHO cells)). Conditions: read-out: LUC EC50 (μM) mRORg.
T2 construct: mouse, NM_011281.2 and from Ile251 to Lys516; expressed in transfected cells; host or cells: CHO cells (transient co-transfection with pG5-Luc reporter)
T2 sequence (P51450 251-516): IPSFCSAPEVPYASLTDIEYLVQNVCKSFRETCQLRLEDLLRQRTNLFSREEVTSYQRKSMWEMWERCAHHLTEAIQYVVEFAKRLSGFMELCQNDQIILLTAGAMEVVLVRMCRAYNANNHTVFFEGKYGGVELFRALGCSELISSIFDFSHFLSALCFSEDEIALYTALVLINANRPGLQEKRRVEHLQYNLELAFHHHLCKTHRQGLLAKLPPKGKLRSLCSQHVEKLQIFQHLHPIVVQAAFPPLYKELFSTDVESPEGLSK
Assay type: cell-based
Method in brief: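 Readout is intracellular luciferase after 2-day compound exposure (8 concentrations, 0.1% DMSO) in CHO cells expressing GAL4 fused to mouse RORγ LBD residues Ile251–Lys516 plus pG5-Luc reporter. EC50 fitted from %-of-control; points showing resazurin-detected cytotoxicity dropped.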

Row | Structure (SMILES) | EC50
22 | Cc1ccc(NC(=O)C[C@H](CCO)c2nnc(-c3cc(CC(C)C)on3)n2C2CC2)c(C)c1 [Example F-457] | > 3 µM
23 | Cc1ccc(NC(=O)CCc2nnc([C@H]3C[C@H](CC4CCCC4)C3)n2C2CC2)c(C)c1 [Example F-423] | < 3 µM
24 | CCn1c(CCC(=O)Nc2cccc(Cl)c2C)nnc1C1Cc2ccccc2C1 [Example F-3] | < 3 µM
25 | Cc1cccc(O)c1NC(=O)CCc1nnc(CCC(C)C)n1C1CC1 [Example F-104] | > 3 µM
26 | Cc1ccc(NC(=O)CC(CCO)c2nnc(CCCC(C)(C)C)n2C2CC2)c(C)c1 (racemic) [Example F-307] | < 3 µM
27 | CCn1c(CCC(=O)Nc2cccc3ccccc23)nnc1CCc1ccccc1 [Example F-12] | < 3 µM
28 | Cc1c(Cl)cccc1NC(=O)CCc1nnc(CC(=O)OC(C)(C)C)n1C1CC1 [Example F-178] | < 3 µM
29 | Cc1ccc(NC(=O)C[C@H](CCC(=O)O)c2noc(-c3nnc(CC(C)C)s3)c2C2CC2)c(Cl)c1 [Example E-14] | < 3 µM
30 | COc1cc(C)ccc1CNC(=O)[C@H]1CCC(=O)N(C)[C@@H]1c1nnc(CCCC(C)(C)C)n1C1CC1 [Example F-323] | < 3 µM
31 | CC(C)CCc1nnc(CCC(=O)NCc2ccccc2Cl)n1C1CC1 [Example F-121] | > 3 µM
32 | Cc1c(Cl)cccc1NC(=O)CCc1nnc(CC(=O)O)n1C1CC1 [Example F-264] | > 3 µM
33 | Cc1ccc(NC(=O)C[C@H](CCC(=O)O)c2noc(-c3cc(C4(CC(C)C)CC4)on3)c2C2CC2)c(Cl)c1 [Example E-23] | < 3 µM
34 | Cc1c(Cl)cccc1NC(=O)CCc1nnc(C2CN(CC(C)C)C2)n1C1CC1 [Example F-260] | > 3 µM
35 | Cc1ccc(NC(=O)CC(Cc2ncco2)c2nnc([C@H]3C[C@@H](CC(C)C)C3)n2C2CC2)c(C)c1 (mixture of isomers) [Example F-454] | < 3 µM
36 | CC(=O)N1C[C@H](C(=O)Nc2ccc(C)cc2C)[C@@H](c2nnc(C(O)CCC(C)(C)C)n2C2CC2)C1 (single isomer, unassigned) [Example F-349] | > 3 µM
37 | COCCC(CC(=O)Nc1ccc(C)cc1C)c1nnc(CCC2CCCCC2)n1C1CC1 (racemic) [Example F-396] | < 3 µM
38 | Cc1ccc(NC(=O)[C@H]2CCCN(C)[C@@H]2c2nnc(CCCC(C)(C)C)n2C2CC2)c(C)c1 [Example F-310] | < 3 µM
39 | Cc1ccc(NC(=O)C[C@H](CCC(=O)O)c2noc(-c3cc(CC(C)(C)C)on3)c2C2CC2)c(Cl)c1 [Example E-06] | < 3 µM
40 | CC(=O)N(C)[C@@H](CC(=O)Nc1ccc(C)cc1C)c1nnc(CCCC(C)(C)C)n1C1CC1 [Example F-354] | < 3 µM
41 | Cc1ccc(NC(=O)CC(CCCN)c2nnc(CCCC(C)C)n2C2CC2)c(C)c1 (racemic) [Example F-282] | > 3 µM
42 | CCn1c(CCC(=O)Nc2cc(C)cc(C)c2)nnc1CCC(C)(C)C [Example F-46] | > 3 µM

— patent US20160137639A1, “TRIAZOLE-ISOXAZOLE COMPOUND AND MEDICAL USE THEREOF” (JAPAN TOBACCO INC., priority 2012, published 2016)
